Source: PubChem BioAssay AID1199 (EPA DSSTox, 2008)
Activity calls are given as the source filed them.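 How the source made its calls: active means a tumour-causing dose and a tumour site recorded for mice in at least one sex group; inconclusive means only government mouse studies exist and were judged inadequate; inactive means mouse studies exist but none gave tumours.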

Tested on: mouse carcinogenicity bioassay, TD50 from CPDB
Assay: DSSTox (CPDBAS) Carcinogenic Potency Database Summary Mouse Bioassay Results
Conditions: TD50_Mouse_Note: TD50 is harmonic mean of more than one positive test; TargetSites_Mouse_Female: adrenal gland; liver
Procedure, shortened: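 Values are TD50 carcinogenic potencies from mouse chronic bioassays, taking the most positive result for each sex-species. Sources are published literature and NCI/NTP studies; target sites reflect author-reported positive findings.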

| SMILES | Potency |
| --- | --- |
| N=C1C=CC(=C(c2ccc(N)cc2)c2ccc(N)cc2)C=C1 | 0.159 mmol/kg/day |

Same assay, conditions: TD50_Mouse_Note: TD50 is harmonic mean of more than one positive test; TargetSites_Mouse_Female: esophagus; oral cavity; stomach

| SMILES | Potency |
| --- | --- |
| c1ccc2c(c1)cc1ccc3cccc4ccc2c1c34 | 0.0138 mmol/kg/day |

Same assay, conditions: TD50_Mouse_Note: TD50 is harmonic mean of more than one positive test; TargetSites_Mouse_Female: hematopoietic system

| SMILES | Potency |
| --- | --- |
| NC(=O)N(CCO)N=O | 0.00615 mmol/kg/day |

Same assay, conditions: TD50_Mouse_Note: TD50 is harmonic mean of more than one positive test; TargetSites_Mouse_Female: hematopoietic system; lung

| SMILES | Potency |
| --- | --- |
| CCCCNNCCCC | 0.213 mmol/kg/day |

Same assay, conditions: TD50_Mouse_Note: TD50 is harmonic mean of more than one positive test; TargetSites_Mouse_Female: hematopoietic system; lung; myocardium

| SMILES | Potency |
| --- | --- |
| CC(C)CCC[C@@H](C)[C@H]1CC[C@H]2[C@@H]3CC=C4C[C@@H](OC(=O)Cc5ccc(N(CCCl)CCCl)cc5)CC[C@]4(C)[C@H]3CC[C@]12C | 0.000955 mmol/kg/day |

Same assay, conditions: TD50_Mouse_Note: TD50 is harmonic mean of more than one positive test; TargetSites_Mouse_Female: liver

| SMILES | Potency |
| --- | --- |
| ClC(Cl)=C(Cl)Cl | 0.953 mmol/kg/day |
| O=Cc1ccco1 | 2.05 mmol/kg/day |
| CCCCOCCOCCOCc1cc2c(cc1CCC)OCO2 | 0.86 mmol/kg/day |
| COC(=O)C(c1ccccc1)C1CCCCN1 (stereo not drawn) | 0.371 mmol/kg/day |

Same assay, conditions: TD50_Mouse_Note: TD50 is harmonic mean of more than one positive test; TargetSites_Mouse_Female: liver; lung; stomach

| SMILES | Potency |
| --- | --- |
| O=P(OCC(Br)CBr)(OCC(Br)CBr)OCC(Br)CBr (stereo not drawn) | 0.183 mmol/kg/day |

Same assay, conditions: TD50_Mouse_Note: TD50 is harmonic mean of more than one positive test; TargetSites_Mouse_Female: liver; stomach

| SMILES | Potency |
| --- | --- |
| O=C(O)c1cc(Oc2ccc(C(F)(F)F)cc2Cl)ccc1[N+](=O)[O-] | 0.39 mmol/kg/day |

Same assay, conditions: TD50_Mouse_Note: TD50 is harmonic mean of more than one positive test; TargetSites_Mouse_Female: liver; urinary bladder

| SMILES | Potency |
| --- | --- |
| Nc1ccc(-c2ccccc2)cc1 | 0.0124 mmol/kg/day |
| COc1ccc(C)cc1N | 0.396 mmol/kg/day |

Same assay, conditions: TD50_Mouse_Note: TD50 is harmonic mean of more than one positive test; TargetSites_Mouse_Female: liver; vascular system

| SMILES | Potency |
| --- | --- |
| Cc1ccc([N+](=O)[O-])cc1N | 1.82 mmol/kg/day |
| Cc1cc2c(nc1N)[nH]c1ccccc12 | 0.0863 mmol/kg/day |
| Cc1ccc(Cl)cc1N | 1.38 mmol/kg/day |

Same assay, conditions: TD50_Mouse_Note: TD50 is harmonic mean of more than one positive test; TargetSites_Mouse_Female: lung

| SMILES | Potency |
| --- | --- |
| C=C1C/C(=C/C)C(=O)O[C@@H]2CCN3CC=C(COC(=O)[C@@]1(O)CO)[C@H]23 | 0.00564 mmol/kg/day |

Same assay, conditions: TD50_Mouse_Note: TD50 is harmonic mean of more than one positive test; TargetSites_Mouse_Female: lung; stomach

| SMILES | Potency |
| --- | --- |
| CCCCN(N)CCCC | 0.313 mmol/kg/day |

Same assay, conditions: TD50_Mouse_Note: TD50 is harmonic mean of more than one positive test; TargetSites_Mouse_Female: lung; vascular system

| SMILES | Potency |
| --- | --- |
| CN(C)NC(=O)CCC(=O)O | 6.43 mmol/kg/day |

Same assay, conditions: TD50_Mouse_Note: TD50 is harmonic mean of more than one positive test; TargetSites_Mouse_Female: mammary gland

| SMILES | Potency |
| --- | --- |
| C=C(Cl)CSC(=S)N(CC)CC | 0.189 mmol/kg/day |

Same assay, conditions: TD50_Mouse_Note: TD50 is harmonic mean of more than one positive test; TargetSites_Mouse_Female: no positive results

| SMILES | Potency |
| --- | --- |
| C=C1C(C)(C)[C@@]2(Cl)C(Cl)[C@]1(Cl)C(Cl)(Cl)C2(Cl)Cl (stereo partly drawn) | 0.00234 mmol/kg/day |

Same assay, conditions: TD50_Mouse_Note: TD50 is harmonic mean of more than one positive test; TargetSites_Mouse_Female: vascular system

| SMILES | Potency |
| --- | --- |
| COc1cc2c(c3oc4cccc(O)c4c(=O)c13)C1C=COC1O2 (stereo not drawn) | 0.0028 mmol/kg/day |

Same assay, conditions: TD50_Mouse_Note: TD50 is harmonic mean of more than one positive test; greater than ten-fold variation among TD50 values for positive res; TargetSites_Mouse_Female: stomach

| SMILES | Potency |
| --- | --- |
| NC(=O)/C(=C\c1ccc([N+](=O)[O-])o1)c1ccco1 | 0.528 mmol/kg/day |

Same assay, conditions: TD50_Mouse_Note: TD50 value is overestimated as upper 99% confidence limit from study with 100% tumor incidence but no lifetable; harmoni

| SMILES | Potency |
| --- | --- |
| Cc1cccc(Nc2cc(Cl)nc(SCC(=O)O)n2)c1C | 0.0334 mmol/kg/day |

Same assay, conditions: TD50_Mouse_Note: no positive results

| SMILES | outcome |
| --- | --- |
| C=C1CC[C@H](O)C/C1=C/C=C1\CCC[C@]2(C)[C@@H]([C@H](C)/C=C/[C@H](C)C(C)C)CC[C@@H]12 | inactive |
| ClC(Cl)=C(Cl)c1c(Cl)c(Cl)c(Cl)c(Cl)c1Cl | inactive; no positive results |
| CSCCC(N)C(=O)O (stereo not drawn) | inactive; no positive results |

Same assay, conditions: TD50_Mouse_Note: no positive results; TargetSites_Mouse_Female: no positive results

| SMILES | outcome |
| --- | --- |
| CC1=C[C@H]2O[C@@H]3[C@H](O)[C@@H](O)[C@@](C)(C34CO4)[C@@]2(CO)[C@H](O)C1=O (stereo partly drawn) | inactive |
| Nc1ncc([N+](=O)[O-])s1 | inactive; no positive results |
| O=C(CCl)c1ccccc1 | inactive; no positive results |
| C1N2CN3CN1CN(C2)C3 | inactive; no positive results |
| Cc1c(N(C)C)c(=O)n(-c2ccccc2)n1C | inactive; no positive results |
| CC[C@H]1OC(=O)C[C@@H](O)[C@H](C)[C@@H](O[C@@H]2O[C@H](C)[C@@H](O[C@H]3C[C@@](C)(O)[C@@H](O)[C@H](C)O3)[C@H](N(C)C)[C@H]2O)[C@@H](CC=O)C[C@@H](C)C(=O)/C=C/C(C)=C/C1CO[C@@H]1O[C@H](C)[C@@H](O)[C@@H](OC)[C@H]1OC (stereo partly drawn) | inactive; no positive results |
| CN(C)C(=S)S[Se](SC(=S)N(C)C)(SC(=S)N(C)C)SC(=S)N(C)C | inactive; no positive results |
| Nc1ccc([N+](=O)[O-])cc1O | inactive; no positive results |
| CCN(Cc1cccc(S(=O)(=O)[O-])c1)c1ccc(C(=C2C=CC(=[N+](C)C)C=C2)c2ccc(N(CC)Cc3cccc(S(=O)(=O)O)c3)cc2)cc1 | inactive; no positive results |
| OC[C@@H](O)[C@@H](O)[C@H](O)[C@H](O)CO | inactive; no positive results |
| F | inactive; no positive results |
| NC(=S)NNC(N)=S | inactive; no positive results |
| OCC(CO)N[C@H]1C[C@](O)(CO)[C@@H](O)[C@H](O)[C@H]1O | inactive; no positive results |
| Oc1ccc(-c2ccccc2)cc1 | inactive; no positive results |
| O=S(=O)(c1ccc(Cl)cc1)c1ccc(Cl)cc1 | inactive; no positive results |
| Cc1cc(Cl)ccc1OCC(=O)O | inactive; no positive results |
| CCN(CC)C(=S)[S-].CCN(CC)C(=S)[S-].[Zn+2] | inactive; no positive results |
| O=[N+]([O-])c1ccc(Cl)c([N+](=O)[O-])c1 | inactive; no positive results |
| CCCCOCCOCCOCc1cc2c(cc1CCC)OCO2 | inactive; no positive results |
| S=C(S)NCCNC(=S)S | inactive; no positive results |
| [N-]=[N+]=O | inactive; no positive results |
| C=C(C)C(=O)Nc1ccc(Cl)c(Cl)c1 | inactive; no positive results |
| CCOC(=O)CBr | inactive |
| CC(=O)Nc1ccc(S(=O)(=O)O)c2cc(S(=O)(=O)O)c(N=Nc3ccc(N=Nc4ccc(S(=O)(=O)O)cc4)c4ccc(S(=O)(=O)O)cc34)c(O)c12 | inactive; no positive results |
| c1ccc2sc(SN3CCOCC3)nc2c1 | inactive; no positive results |
| Nc1ccc(/C=C/c2ccc(N)cc2S(=O)(=O)O)c(S(=O)(=O)O)c1 | inactive; no positive results |

| SMILES | outcome |
| --- | --- |
| CN(N=O)C1=Nc2ccc(Cl)cc2C(c2ccccc2)=[N+]([O-])C1 | inactive; no positive results |
| CC(=O)Nc1ccc(CC(=O)O)cc1 | inactive; no positive results |
| ClC1=C(Cl)[C@]2(Cl)[C@@H]3[C@H]4C[C@H]([C@@H]5O[C@H]45)[C@@H]3[C@@]1(Cl)C2(Cl)Cl | inactive; no positive results |
| COP(=S)(OC)Oc1ccc([N+](=O)[O-])cc1 | inactive; no positive results |
| CC1=C(/C=C/C(C)=C/C=C/C(C)=C/C=C/C=C(C)/C=C/C=C(C)/C=C/C2=C(C)CCCC2(C)C)C(C)(C)CCC1 | inactive; no positive results |
| S=C(NC1CCCCC1)NC1CCCCC1 | inactive; no positive results |
| Cc1ccc(Cc2cnc(NCCSCc3ccc(CN(C)C)o3)[nH]c2=O)cn1 | inactive; no positive results |
| Nc1ccc(NC(=O)c2ccc(N)cc2)cc1 | inactive; no positive results |
| CCOP(=S)(OCC)Oc1ccc([N+](=O)[O-])cc1 | inactive; no positive results |
| CCCCCCCCCc1ccc(OCCOCCO)cc1 | inactive |
| O=S1OCCO1 | inactive |
| C/C=C\c1ccc(OC)cc1 | inactive |
| CC1=CC(=O)CC(C)(C)C1 | inactive; no positive results |
| FC(F)(Cl)Cl | inactive; no positive results |
| CC(C)OC(=O)COc1ccc(Cl)cc1Cl | inactive; no positive results |
| COc1ccc(C(=O)/C(Br)=C\C(=O)O)cc1 | inactive; no positive results |
| CCOP(=S)(OCC)Oc1cc(C)nc(C(C)C)n1 | inactive; no positive results |
| c1ccc2n[nH]nc2c1 | inactive; no positive results |
| COC(N)=O | inactive; no positive results |
| CCOC(=O)[C@H](CCc1ccccc1)N[C@@H](C)C(=O)N1Cc2ccccc2C[C@H]1C(=O)O | inactive; no positive results |
| O=C/C=C/c1ccccc1 | inactive; no positive results |
| [S-]c1nc2ccccc2s1.[S-]c1nc2ccccc2s1.[Zn+2] | inactive; no positive results |
| COc1cc(/C=C/C(=O)O[C@H]2CC[C@]34C[C@]35CC[C@]3(C)[C@@H]([C@H](C)CCC=C(C)C)CC[C@@]3(C)[C@@H]5CC[C@H]4C2(C)C)ccc1O | inactive; no positive results |
| CC(Oc1cc(Cl)c(Cl)cc1Cl)C(=O)O (stereo not drawn) | inactive; no positive results |
| O=c1ccc(=O)[nH][nH]1 | inactive; no positive results |

Same assay, conditions: TD50_Mouse_Note: only experiment is NCI/NTP bioassay inadequate; TargetSites_Mouse_Female: NTP bioassay inadequate

| SMILES | outcome |
| --- | --- |
| CC[C@H]1CN2CCc3cc(OC)c(OC)cc3[C@@H]2C[C@@H]1C[C@H]1NCCc2cc(OC)c(OC)cc21 | ntp bioassay inadequate |

Same assay, conditions: TD50_Mouse_Note: positive test results only by intraperitoneal or intravenous injection; TD50 is harmonic mean of more than one positive; TargetSites_Mouse_Female: hematopoietic system; lung

| SMILES | Potency |
| --- | --- |
| O[C@H]([C@H](O)[C@@H](O)CBr)[C@H](O)CBr | 0.0357 mmol/kg/day |

Same assay, conditions: TD50_Mouse_Note: positive test results only by intraperitoneal or intravenous injection; TargetSites_Mouse_Female: peritoneal cavity

| SMILES | Potency |
| --- | --- |
| CN(C)C(=O)Cl | 0.0499 mmol/kg/day |

Same assay, conditions: TargetSites_Mouse_Female: esophagus; oral cavity; stomach; uterus

| SMILES | Potency |
| --- | --- |
| C=COC(C)=O | 45.5 mmol/kg/day |

Same assay, conditions: TargetSites_Mouse_Female: hematopoietic system

| SMILES | Potency |
| --- | --- |
| NNc1nc(-c2ccc(N)cc2)cs1 | 0.0548 mmol/kg/day |

Same assay, conditions: TargetSites_Mouse_Female: no positive results

| SMILES | Potency |
| --- | --- |
| Cc1ccc(N=Nc2c(O)ccc3ccccc23)c([N+](=O)[O-])c1 | 116 mmol/kg/day |
| O=C(O)[C@@H]1[C@H](C(=O)O)[C@@]2(Cl)C(Cl)=C(Cl)[C@]1(Cl)C2(Cl)Cl | 0.363 mmol/kg/day |

Same assay, conditions: TargetSites_Mouse_Female: ovary

| SMILES | Potency |
| --- | --- |
| C=CC1CC=CCC1 (stereo not drawn) | 0.98 mmol/kg/day |
| O=C1CN(/N=C/c2ccc([N+](=O)[O-])o2)C(=O)N1 | 5.88 mmol/kg/day |

Same assay, conditions: TargetSites_Mouse_Female: stomach

| SMILES | Potency |
| --- | --- |
| C/C=C/Cl | 0.066 mmol/kg/day |
